The values that follow come from ChEMBL document CHEMBL1201862, “PubChem BioAssay data set” (2004).

Molecules are shown by their SMILES.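 These data come from cells grown in 96-well plates and exposed to compound for 48 hours at five concentrations. Abbreviation: GI50, concentration required for 50% inhibition of growth.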 Activity calls are given as the source filed them. No stated cut-off is given here; in the data, active = GI50 up to about 1.1 µM and inactive = higher. Bounds are passed on as bounds.

The GI50 is the concentration at which growth is held to half of that of the control.

Among the test systems are 786-0; A498; ACHN; HOP-62; HT-29; KM12; LOX IMVI; MCF7; MDA-MB-435; Malme-3M; OVCAR-4; PC-3; RPMI-8226; SF-268; SK-MEL-5; SNB-75; U-251; UACC-257; UACC-62; M19-MEL.
Assay in all cases: DTP human tumour cell line panel, 48 h

`C=C(C)[C@@]1(O)CCCC[C@@H]1CC(Sc1ccccc1)Sc1ccccc1`: the GI50 in the test with 786-0 is 17.8 µM (inactive); in the test with A498 it was 29.9 µM (inactive); with ACHN, 37.6 µM (inactive); with HOP-62, 16.5 µM (inactive); in the test on HT-29, 18.2 µM (inactive); in the test with KM12, 14.2 µM (inactive). For the same compound, the GI50 in the test on LOX IMVI was 14.6 µM (inactive); with MCF7, 24.7 µM (inactive); with MDA-MB-435, 16.2 µM (inactive); in the test with Malme-3M, 12.6 µM (inactive); with OVCAR-4 it was 13.6 µM (inactive); in the test with PC-3, 16.3 µM (inactive). In addition, the GI50 was 11.3 µM (inactive) with RPMI-8226; 15.7 µM (inactive) in the test with SF-268; 15.7 µM (inactive) in the test with SK-MEL-5; 16 µM (inactive) in the test on SNB-75; 21.1 µM (inactive) in the test on U-251; 20.2 µM (inactive) in the test on UACC-257. Also, the GI50 in the test with UACC-62 was 41.9 µM (inactive).
Consider `CC(=O)/C(=C(/Br)I)c1ccccc1`, for which the GI50 with 786-0 was 9.04 µM (inactive); in the test on A498 it was 14.5 µM (inactive); in the test on ACHN, 13 µM (inactive); in the test on HOP-62 it was 14.1 µM (inactive); in the test with HT-29, 4.06 µM (inactive); with KM12, 14.8 µM (inactive). In addition, the GI50 in the test on LOX IMVI was 9.84 µM (inactive); in the test on MCF7 it was 6.47 µM (inactive); in the test with MDA-MB-435 it was 3.01 µM (inactive); in the test with Malme-3M it was 10.9 µM (inactive); in the test with OVCAR-4, 12.5 µM (inactive); in the test on PC-3 it was 16.8 µM (inactive). In addition, the GI50 in the test with RPMI-8226 was 2.58 µM (inactive); in the test with SF-268, 12 µM (inactive); in the test with SK-MEL-5, 7.71 µM (inactive); in the test with SNB-75 it was 14.2 µM (inactive); in the test on U-251, 13.1 µM (inactive); in the test with UACC-257, 12.6 µM (inactive). Besides, the GI50 with UACC-62 is 12.8 µM (inactive).
With `COc1ccc(OC)c2c(=O)cc(-c3ccccc3)[nH]c12`, the GI50 in the test with 786-0, in the test on A498, in the test on ACHN, with HOP-62, in the test on HT-29 and in the test on KM12 was > 100 µM (inactive) each time. Moreover, the GI50 in the test with LOX IMVI, with MCF7, with MDA-MB-435, in the test on Malme-3M, in the test on OVCAR-4 and in the test on PC-3 was > 100 µM (inactive) in each case. Besides, the GI50 with RPMI-8226 was > 100 µM (inactive); in the test on SF-268 it was > 100 µM (inactive); in the test on SK-MEL-5, > 10 µM (inactive); with SNB-75 it was 93.3 µM (inactive); in the test on U-251, > 100 µM (inactive); in the test with UACC-257 it was > 100 µM (inactive). In addition, the GI50 with UACC-62 is > 100 µM (inactive).
For `CCOC(=O)C1=C(C)N(c2ccc(Cl)cc2)C2(O)C=CC(=O)C3C(=O)N(c4ccccc4)C(=O)C132` (stereo not drawn), the GI50 in the test on 786-0 was 1.53 µM (inactive); with A498, 1.56 µM (inactive); in the test with ACHN, 1.59 µM (inactive); with HOP-62 it was 2.02 µM (inactive); in the test with HT-29, 1.82 µM (inactive); in the test on KM12, 1.69 µM (inactive). Also, the GI50 was 1.36 µM (inactive) in the test with LOX IMVI; 1.62 µM (inactive) in the test on MCF7; 2.23 µM (inactive) in the test on MDA-MB-435; 1.66 µM (inactive) with Malme-3M; 1.54 µM (inactive) in the test with OVCAR-4; 1.5 µM (inactive) with PC-3. The GI50 is 1.07 µM (active) with RPMI-8226; 1.76 µM (inactive) in the test on SF-268; 1.6 µM (inactive) in the test with SK-MEL-5; 1.77 µM (inactive) in the test with SNB-75; 1.87 µM (inactive) in the test on U-251; 2.29 µM (inactive) in the test on UACC-257. For the same compound, the GI50 with UACC-62 was 1.59 µM (inactive).
On to `COC1(OC)C2(Cl)CCC1(Cl)C(OC(C)=O)C2` (stereo not drawn), for which the GI50 in the test on 786-0, in the test with A498, with ACHN, with HOP-62, with HT-29 and in the test with KM12 was > 100 µM (inactive) throughout. For the same compound, the GI50 with LOX IMVI, in the test with MCF7, in the test with MDA-MB-435, in the test with Malme-3M, in the test with OVCAR-4 and with PC-3 was > 100 µM (inactive) in each case. Also, the GI50 with RPMI-8226, in the test with SF-268, with SK-MEL-5, with SNB-75, in the test on U-251 and in the test with UACC-257 was > 100 µM (inactive) throughout. Also, the GI50 in the test on UACC-62 was > 90.2 µM (inactive).
As to `CCOC(=O)CCc1ccc(NC(=O)/C=C/c2ccc([N+](=O)[O-])o2)cc1`, the GI50 in the test with 786-0 is 0.229 µM (active); in the test with A498, 3.14 µM (inactive); in the test with ACHN it was 1.34 µM (inactive); with HOP-62, 3.27 µM (inactive); in the test with HT-29, 0.925 µM (active); in the test on KM12, 1.56 µM (inactive). The GI50 is 0.356 µM (active) with LOX IMVI; 0.426 µM (active) in the test on MCF7; 0.316 µM (active) in the test with MDA-MB-435; 1.49 µM (inactive) in the test on Malme-3M; 3.94 µM (inactive) in the test with OVCAR-4; 3.03 µM (inactive) in the test with PC-3. For the same compound, the GI50 in the test with RPMI-8226 was 0.286 µM (active); in the test with SF-268, 1.12 µM (inactive); in the test on SK-MEL-5, 1.49 µM (inactive); in the test with SNB-75, 2.16 µM (inactive); with U-251, 2.12 µM (inactive); in the test on UACC-257 it was 0.798 µM (active). The GI50 in the test with UACC-62 is 2.12 µM (inactive).
In the case of `CC(=C(C(=O)O)C(=O)O)c1cc(-c2cccs2)cc(-c2ccc(Cl)cc2)c1O`, the GI50 was 15.2 µM (inactive) in the test on 786-0; 16 µM (inactive) in the test on A498; 15.8 µM (inactive) with ACHN; 24.1 µM (inactive) in the test with HOP-62; 17.3 µM (inactive) in the test with HT-29; 9.04 µM (inactive) in the test with KM12. Further, the GI50 with LOX IMVI was 13.2 µM (inactive); in the test on MCF7, 5.47 µM (inactive); with MDA-MB-435, 15.6 µM (inactive); with Malme-3M, 21.6 µM (inactive); in the test on OVCAR-4, 26.7 µM (inactive); in the test with PC-3 it was 13.6 µM (inactive). The GI50 is 2.78 µM (inactive) with RPMI-8226; 17.9 µM (inactive) in the test on SF-268; 19.3 µM (inactive) in the test with SK-MEL-5; 18 µM (inactive) in the test on SNB-75; 14.3 µM (inactive) in the test on U-251; 16.7 µM (inactive) in the test on UACC-257. Besides, in the test on UACC-62, the GI50 was 15.3 µM (inactive).
For the compound `c1ccc([P+](CC[P+](c2ccccc2)(c2ccccc2)c2ccccc2)(c2ccccc2)c2ccccc2)cc1`, the GI50 is 21.9 µM (inactive) in the test on 786-0; 5.87 µM (inactive) in the test on A498; 19.2 µM (inactive) in the test on ACHN; 26.4 µM (inactive) in the test with HOP-62; 23.4 µM (inactive) with HT-29; 15.2 µM (inactive) in the test with KM12. The GI50 in the test on LOX IMVI was 63 µM (inactive); with MCF7, 32.1 µM (inactive); with MDA-MB-435, 9.64 µM (inactive); in the test with Malme-3M, 14.1 µM (inactive); in the test with OVCAR-4, 34.3 µM (inactive); with PC-3, 6.27 µM (inactive). Besides, the GI50 is 0.693 µM (active) in the test with RPMI-8226; 6.05 µM (inactive) in the test with SF-268; 8.79 µM (inactive) in the test with SK-MEL-5; 20.1 µM (inactive) in the test with SNB-75; 2.94 µM (inactive) in the test on U-251; 1.19 µM (inactive) in the test on UACC-257. For the same compound, in the test with UACC-62, the GI50 was 25.6 µM (inactive).
Regarding `NC(=O)Cc1nc2c(O)ncnc2n1C1OC(CO)C(O)C1O` (stereo not drawn), the GI50 in the test on 786-0, in the test with A498, in the test with ACHN, in the test with HOP-62, in the test on HT-29 and in the test on KM12 was > 100 µM (inactive) in each case. Besides, the GI50 in the test on LOX IMVI, in the test on MCF7, in the test on MDA-MB-435, in the test on Malme-3M, in the test on OVCAR-4 and in the test with PC-3 was > 100 µM (inactive) each time. In addition, the GI50 in the test on RPMI-8226, in the test with SF-268, in the test on SK-MEL-5, in the test on SNB-75, in the test on U-251 and in the test on UACC-257 was > 100 µM (inactive) each time. In addition, the GI50 in the test with UACC-62 was > 100 µM (inactive).
With `COC(=O)C1CC2C=CC1N(C(=O)OCc1ccccc1)C2` (stereo not drawn), the GI50 in the test on 786-0, with A498, in the test with ACHN, in the test on HOP-62, in the test with HT-29 and with KM12 was > 100 µM (inactive) each time. Also, the GI50 in the test on LOX IMVI is > 100 µM (inactive); in the test on MCF7, 98.2 µM (inactive); in the test on MDA-MB-435 it was > 100 µM (inactive); in the test on Malme-3M it was 26 µM (inactive); in the test with OVCAR-4, > 100 µM (inactive); in the test with PC-3, > 100 µM (inactive). Also, the GI50 in the test with RPMI-8226 is > 100 µM (inactive); in the test with SF-268 it was > 100 µM (inactive); with SK-MEL-5, 92 µM (inactive); in the test with SNB-75 it was > 100 µM (inactive); in the test on U-251, > 100 µM (inactive); in the test with UACC-257, > 100 µM (inactive). For the same compound, the GI50 in the test on UACC-62 is > 100 µM (inactive).
For `COC1CC(OC)C2OC(c3ccccc3)OCC2O1` (stereo not drawn), the GI50 in the test on 786-0, in the test on ACHN, with HOP-62, with HT-29, in the test on KM12 and with LOX IMVI was > 100 µM (inactive) in each case. The GI50 in the test on M19-MEL, with Malme-3M, with SK-MEL-5, in the test with SNB-75, in the test with U-251 and with UACC-257 was > 100 µM (inactive) in each case. The GI50 in the test on UACC-62 is > 100 µM (inactive).
